# Assays:
# [1] = In vivo delivery of lipid nucleic acid mixture by gavage, RT-qPCR in blood and lung; parameters: species or system C57 mice; details: FIG. 14, 6 hours, whole blood and lung
# Method: 1. Preparation of lipid nucleic acid mixture: the mixture of lipid No. 11 or No. 12 with nucleic acid, and the mixture of the lipid combination of No. 1/2/4/9/14/18/19/20/21/22/23/24/25/26/27/28/29/30/32, No. 3/8/10/11/12/13, and No. 6/15/16/17/31 with nucleic acid were prepared by reverse evaporation and boiling method (refer to steps 2.1-2.2).
# 2. Gavage were performed on 6-8 weeks old male C57 mice: 200 μl/aminal, grouped as follows:
# 3. Sample collection: 6 hours after gavage, mouse whole blood (500 μl) and lung (110 mg) were collected by 1.5 mL TRIzol-LS or 3 mL TRIzol, respectively, homogenized and then frozen under −80° C. for storage.
# 4. […]
# [2] = tested on: MRC-5 cell (lung fibroblast); experiment: In vitro delivery of lipid nucleic acid mixture, RT-qPCR of intracellular small RNA; format: cell-based; details: for delivery of double-stranded RNA into MRC-5 cells (real-time PCR) / delivery of HJT-sRNA-m7 single-stranded RNA into MRC-5 cells (real-time PCR): single lipid; for delivery of double-stranded RNA into MRC-5 cells (real-time PCR): boiling (heating) method, FIGS. 77, 91; for delivery of HJT-sRNA-m7 single-stranded RNA into MRC-5 cells (real-time PCR): boiling method, FIGS. 78, 92, 103
# Outline: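 A549 or MRC-5 cells seeded overnight, then given lipid–HJT-sRNA-m7 mixture (ether-evaporation or heated chloroform preparation) at 100 nM sRNA final for 12–24 h. After PBS washes, intracellular sRNA measured by stem-loop RT and SYBR Green qPCR; relative level by 2-ΔCt method with U6 reference.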
SMILES,entry of HJT-sRNA-m7 into blood and lung [1],"amount of HJT-sRNA-m7 that entered the cells (RT-qPCR) ([2]; Example 2-1, FIG. 33, double-stranded, 100 nM, 24 hours, boiling 100° C. 30 min, No. 38 series)","delivery effect relative to that of RNAiMAX (real-time PCR) ([2]; double-stranded RNA, heating method, FIG. 91)",delivery of double-stranded RNA into MRC-5 cells (real-time PCR) [2],delivery of HJT-sRNA-m7 single-stranded RNA into MRC-5 cells (real-time PCR) [2],"delivery effect relative to that of RNAiMAX (real-time PCR) ([2]; double-stranded HJT-sRNA-m7, reverse evaporation method, FIG. 77)"
"CCCCC/C=C\C/C=C\CCCCCCCC(=O)O[C@H](COC(=O)CCCCCCCCCCCCCCCCC)COP(=O)([O-])OCC[N+](C)(C)C [No. 11, trimethyl(2-{[(2R)-2-[(9Z, 12Z)-octadeca-9,12-dienoyloxy]-3-(octadecanoyloxy)propyl-phosphonato]oxy}ethyl) azanium]",could promote entry of small fragments of nucleic acids into the blood and lung,,,,,
"CCCCC/C=C\C/C=C\CCCCCCCC(=O)O[C@H](COC(=O)CCCCCCCCCCCCCCC)COP(=O)([O-])OCC[N+](C)(C)C [No. 12, (2-{[(2R)-3-(hexadecanoyloxy)-2-[(9Z,12Z)-octadeca-9,12-dienoyloxy]propylphosphonato]oxy}ethyl) trimethylazanium]",could promote entry of small fragments of nucleic acids into the blood and lung,,,,,
"CCCCCC/C=C\CCCCCCCC(=O)O[C@H](COC(=O)CCCCCCCCCCCCCCC)COP(=O)(O)OCCN [No. 38, (2-aminoethoxy) [(2R)-2-[(9Z)-hexadec-9-enoyloxy]-3-(hexadecanoyloxy)propoxy] phosphinic acid]",,"effectively delivered nucleic acids into MRC-5 cells, showing an effect close to the transfection reagent RNAiMAX",about twice,delivered double-stranded RNA into A549 and MRC-5 cells,the efficiency of delivery was much higher than that of RNAiMAX,
"CCCCCCCCCCCCCCCCCCC[C@@H](O)[C@@H](N)CO [No. 41, Sphinganine (d22:0)]",,,,delivered double-stranded RNA into MRC-5 cells,delivered HJT-sRNA-m7 single-stranded RNA into A549 and MRC-5 cells,significantly higher than that of RNAiMAX

# Source: patent publication US20210100905A1, “APPLICATION OF COMPOUND OR TRADITIONAL CHINESE MEDICINE EXTRACT IN PREPARATION OF NUCLEIC ACID DELIVERY AGENT, AND RELATED PRODUCTS” (INSTITUTE OF BASIC MEDICAL SCIENCES CHINESE ACADEMY OF …, priority 2018, published 2021)
